Here are results for eleven compounds from patent US12202843B2, “Muscarinic receptor agonists” (Nxera Pharma UK Limited, priority 2014, dated 2025).

Holding throughout (type): cell-based
Test [1] addresses T1, human muscarinic M1 receptor (Homo sapiens, UniProt P11229).
T1 sequence (P11229 1-460): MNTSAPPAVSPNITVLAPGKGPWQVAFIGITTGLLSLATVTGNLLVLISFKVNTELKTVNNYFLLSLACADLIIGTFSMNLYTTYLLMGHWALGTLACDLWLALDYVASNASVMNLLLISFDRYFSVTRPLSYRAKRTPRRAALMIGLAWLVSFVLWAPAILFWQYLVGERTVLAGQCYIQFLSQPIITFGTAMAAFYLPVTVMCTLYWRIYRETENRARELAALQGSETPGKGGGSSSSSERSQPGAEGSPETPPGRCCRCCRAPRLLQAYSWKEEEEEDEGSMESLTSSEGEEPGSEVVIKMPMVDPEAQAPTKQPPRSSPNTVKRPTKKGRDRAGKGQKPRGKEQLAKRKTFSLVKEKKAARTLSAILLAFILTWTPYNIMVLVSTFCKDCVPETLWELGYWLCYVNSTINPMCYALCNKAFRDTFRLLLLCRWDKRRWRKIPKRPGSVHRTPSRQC
Kind of test: Alphascreen Surefire phospho-ERK1/2 functional assay, M1. Conditions: for EC50: CHO cells stably expressing human M1, read-out: pEC50 M1 (converted); for % Emax cf. ACh, M1: CHO cells stably expressing human M1, relative to ACh; for Emax: CHO, read-out: % Emax cf. ACh, M1, CHO cells stably expressing human M1, relative to ACh. On the technique in general: Alpha assays give light when donor and acceptor beads are brought close together.

In test [2] the target is T2, human muscarinic M2 receptor (Homo sapiens, UniProt P08172).
T2 sequence (P08172 1-466): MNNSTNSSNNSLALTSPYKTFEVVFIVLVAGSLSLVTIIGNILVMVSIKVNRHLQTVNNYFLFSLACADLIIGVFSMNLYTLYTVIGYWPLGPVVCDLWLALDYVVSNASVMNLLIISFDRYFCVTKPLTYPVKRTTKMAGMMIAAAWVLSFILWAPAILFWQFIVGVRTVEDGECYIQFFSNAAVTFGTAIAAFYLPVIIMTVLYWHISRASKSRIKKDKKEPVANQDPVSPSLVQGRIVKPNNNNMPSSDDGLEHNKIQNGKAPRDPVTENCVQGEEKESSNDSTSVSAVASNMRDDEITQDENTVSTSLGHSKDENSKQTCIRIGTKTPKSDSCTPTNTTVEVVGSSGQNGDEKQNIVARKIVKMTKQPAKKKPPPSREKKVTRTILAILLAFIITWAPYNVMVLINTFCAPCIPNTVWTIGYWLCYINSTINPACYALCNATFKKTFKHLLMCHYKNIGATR
In words: Alphascreen Surefire phospho-ERK1/2 functional assay, M2. Conditions: for EC50: CHO cells stably expressing human M2, read-out: pEC50 M2 (converted); for % Emax cf. ACh, M2: CHO cells stably expressing human M2, relative to ACh; for Emax: CHO, read-out: % Emax cf. ACh, M2, CHO cells stably expressing human M2, relative to ACh.

In test [3] the target is T3, human muscarinic M3 receptor (Homo sapiens, UniProt P20309).
T3 construct: expressed in transfected cells
T3 sequence (P20309 whole entry): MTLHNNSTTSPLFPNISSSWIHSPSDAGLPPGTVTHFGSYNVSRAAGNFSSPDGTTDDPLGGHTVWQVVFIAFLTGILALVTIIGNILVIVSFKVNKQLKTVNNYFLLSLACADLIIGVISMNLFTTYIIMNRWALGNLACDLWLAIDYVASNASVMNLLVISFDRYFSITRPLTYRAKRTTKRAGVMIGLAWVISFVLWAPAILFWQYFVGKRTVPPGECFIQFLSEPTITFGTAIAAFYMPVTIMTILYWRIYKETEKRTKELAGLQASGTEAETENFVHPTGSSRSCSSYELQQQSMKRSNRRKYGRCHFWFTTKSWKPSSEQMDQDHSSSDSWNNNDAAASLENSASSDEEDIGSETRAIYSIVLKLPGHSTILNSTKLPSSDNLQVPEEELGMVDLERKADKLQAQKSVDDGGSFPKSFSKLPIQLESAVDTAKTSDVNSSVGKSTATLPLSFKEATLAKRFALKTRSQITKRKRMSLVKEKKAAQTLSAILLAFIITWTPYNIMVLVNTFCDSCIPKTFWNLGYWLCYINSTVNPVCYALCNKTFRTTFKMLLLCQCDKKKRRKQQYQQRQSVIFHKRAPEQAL
Kind of test: Alphascreen Surefire phospho-ERK1/2 functional assay, M3. The settings on record: for % Emax cf. ACh, M3: CHO cells stably expressing human M3, relative to ACh; for EC50: CHO cells stably expressing human M3, read-out: pEC50 M3 (converted); for Emax: CHO, read-out: % Emax cf. ACh, M3, CHO cells stably expressing human M3, relative to ACh.

The target of test [4] is T4, human muscarinic M4 receptor (Homo sapiens, UniProt P08173).
T4 construct: expressed in transfected cells
T4 sequence (P08173 1-479): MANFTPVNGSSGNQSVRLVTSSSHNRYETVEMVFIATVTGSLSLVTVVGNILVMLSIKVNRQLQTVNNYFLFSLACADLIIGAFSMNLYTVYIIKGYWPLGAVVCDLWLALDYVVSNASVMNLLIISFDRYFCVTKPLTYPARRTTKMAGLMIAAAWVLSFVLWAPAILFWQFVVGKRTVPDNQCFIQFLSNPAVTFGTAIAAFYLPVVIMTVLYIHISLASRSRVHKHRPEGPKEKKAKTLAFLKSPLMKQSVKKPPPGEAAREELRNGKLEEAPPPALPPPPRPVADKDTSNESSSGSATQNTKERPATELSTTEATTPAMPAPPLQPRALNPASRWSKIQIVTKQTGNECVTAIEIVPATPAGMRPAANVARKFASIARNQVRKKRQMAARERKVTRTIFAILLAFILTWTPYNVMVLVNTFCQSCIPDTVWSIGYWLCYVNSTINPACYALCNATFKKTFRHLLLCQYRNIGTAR
In words: Alphascreen Surefire phospho-ERK1/2 functional assay, M4. Conditions: for EC50: CHO cells stably expressing human M4, read-out: pEC50 M4 (converted); for % Emax cf. ACh, M4: CHO cells stably expressing human M4, relative to ACh; for Emax: CHO, read-out: % Emax cf. ACh, M4, CHO cells stably expressing human M4, relative to ACh.

Turning to `CCOC(=O)N1CC2CCC1CC2N1CCC2(CC1)CNC(=O)C2` (single isomer, unassigned) [Example 3-1 Isomer 2, ethyl 5-(3-oxo-2,8-diazaspiro[4.5]dec-8-yl)-2-azabicyclo[2.2.2]octane-2-carboxylate], the figures for the EC50 in test [1], in test [2] and in test [4] were 0.0631 µM, greater than 20 µM and 0.251 µM, respectively. In test [1] (listed as 3-1 Isomer 2), the “% Emax cf. ACh, M1” value stood at 94%. Moreover, the “% Emax cf. ACh, M2” value in test [2] (listed as 3-1 Isomer 2) is 11%. Moreover, in test [3] (listed as 3-1 Isomer 2), the “% Emax cf. ACh, M3” value stood at 1%. The “% Emax cf. ACh, M4” value in test [4] (listed as 3-1 Isomer 2) is on record as 31%.
As for `CCOC(=O)N1CC2CCC1CC2N1CCC2(CC1)CNC(=O)C2` (single isomer, unassigned) [Example 3-1 Isomer 3, ethyl 5-(3-oxo-2,8-diazaspiro[4.5]dec-8-yl)-2-azabicyclo[2.2.2]octane-2-carboxylate], the values for the EC50 in test [1], in test [2] and in test [4] were 0.0398 µM, greater than 20 µM and 0.158 µM, respectively. The “% Emax cf. ACh, M1” value in test [1] (listed as 3-1 Isomer 3) is recorded as 101%. The “% Emax cf. ACh, M2” value in test [2] (listed as 3-1 Isomer 3) is 17%. In addition, the “% Emax cf. ACh, M3” value in test [3] (listed as 3-1 Isomer 3) is given as 16%. Also, the “% Emax cf. ACh, M4” value in test [4] (listed as 3-1 Isomer 3) is on record as 41%.
Take `CCOC(=O)N1C2CCCC1CC(N1CCC3(CC1)CNC(=O)C3)C2` (single isomer, unassigned) [Example 5-1 Isomer 1, ethyl 3-(3-oxo-2,8-diazaspiro[4.5]dec-8-yl)-9-azabicyclo[3.3.1]nonane-9-carboxylate]: the EC50 was 0.316 µM in test [1], 7.94 µM in test [2], greater than 20 µM in test [3] and 0.251 µM in test [4]. For the same compound, the “% Emax cf. ACh, M1” value in test [1] (listed as 5-1 Isomer 1) was found to be 131%. Moreover, the Emax is 17% in test [2] and 8% in test [3]. Further, the “% Emax cf. ACh, M4” value in test [4] (listed as 5-1 Isomer 1) came out at 25%.
For the compound `CCOC(=O)N1C2CCCC1CC(N1CCC3(CC1)CNC(=O)C3)C2` (single isomer, unassigned) [Example 5-1 Isomer 2, ethyl 3-(3-oxo-2,8-diazaspiro[4.5]dec-8-yl)-9-azabicyclo[3.3.1]nonane-9-carboxylate], the EC50 is 0.158 µM in test [1], greater than 20 µM in test [2] and greater than 20 µM in test [4]. The “% Emax cf. ACh, M1” value in test [1] (listed as 5-1 Isomer 2) is 77%. For the same compound, in test [2], the “% Emax cf. ACh, M2” value was 14%. In test [3], the “% Emax cf. ACh, M3” value was 6%. Moreover, the “% Emax cf. ACh, M4” value in test [4] (listed as 5-1 Isomer 2) is on record as 8%.
On to `C#CCOC(=O)N1C2CCCC1CC(N1CCC3(CC1)CNC(=O)C3)C2` (single isomer, unassigned) [Example 5-2 Isomer 1, prop-2-yn-1-yl 3-(3-oxo-2,8-diazaspiro[4.5]dec-8-yl)-9-azabicyclo[3.3.1]nonane-9-carboxylate], for which the EC50 was 0.1 µM in test [1], greater than 20 µM in test [2], greater than 20 µM in test [3] and 0.0794 µM in test [4]. Further, the “% Emax cf. ACh, M1” value in test [1] (listed as 5-2 Isomer 1) is reported as 78%. The values for the Emax in test [2] and in test [4] were 3% and 37%, respectively. The “% Emax cf. ACh, M3” value in test [3] (listed as 5-2 Isomer 1) was 9%.
In the case of `C#CCOC(=O)N1C2CCCC1CC(N1CCC3(CC1)CNC(=O)C3)C2` (single isomer, unassigned) [Example 5-2 Isomer 2, prop-2-yn-1-yl 3-(3-oxo-2,8-diazaspiro[4.5]dec-8-yl)-9-azabicyclo[3.3.1]nonane-9-carboxylate], the “% Emax cf. ACh, M1” value in test [1] (listed as 5-2 Isomer 2) amounted to 48%. The “% Emax cf. ACh, M2” value in test [2] turned out to be 3%. Also, in test [3] (listed as 5-2 Isomer 2), the “% Emax cf. ACh, M3” value stood at 4%. In test [4], the EC50 is 0.0631 µM and the “% Emax cf. ACh, M4” value is listed as 20%.
As to `CCOC(=O)N1C2CCCC1CC(N1CCC3(CC1)CNC(=O)O3)C2` (single isomer, unassigned) [Example 5-4 Isomer 2], in test [1], the EC50 was 0.158 µM and the “% Emax cf. ACh, M1” value is given as 72%. In addition, in test [2], the EC50 was greater than 20 µM and the Emax is 2%. In addition, in test [3], the EC50 was greater than 20 µM and the Emax amounted to 0%. Further, the “% Emax cf. ACh, M4” value in test [4] (listed as 5-4 Isomer 2) came out at 8%.
On to `COC(=O)N1CC2CC(N3CCC4(CC3)CNC(=O)C4)CC1C2` (single isomer, unassigned) [Example 6-1 Isomer 2], for which the EC50 was 0.02 µM in test [1], greater than 20 µM in test [2], greater than 20 µM in test [3] and 0.0631 µM in test [4]. The “% Emax cf. ACh, M1” value in test [1] (listed as 6-1 Isomer 2) was found to be 104%. The results for the Emax in test [2] and in test [3] were 18% and 5%, respectively. Besides, the “% Emax cf. ACh, M4” value in test [4] turned out to be 33%.
With `CCOC(=O)N1CC2CC(N3CCC4(CC3)CNC(=O)C4)CC1C2` (single isomer, unassigned) [Example 6-2 Isomer 2], the EC50 is 0.002 µM in test [1], 0.0158 µM in test [2], greater than 20 µM in test [3] and 0.00398 µM in test [4]. Further, the Emax was 118% in test [1], 30% in test [2], 18% in test [3] and 78% in test [4].
`CCOC(=O)N1CC2CC(N3CCC4(CC3)CNC(=O)O4)CC1C2` (single isomer, unassigned) [Example 6-3 Isomer 2]: the EC50 was 0.0251 µM in test [1], 1.26 µM in test [2], greater than 20 µM in test [3] and 0.0398 µM in test [4]. Also, the Emax turned out to be 112% in test [1], 24% in test [2], 48% in test [3] and 81% in test [4].
Regarding `CCOC(=O)N1C2CCC1CC(N1CCCC3(CC1)CNC(=O)C3)C2` (single isomer, unassigned) [Example 9-1 Isomer 2, ethyl 3-(3-oxo-2,8-diazaspiro[4.6]undec-8-yl)-8-azabicyclo[3.2.1]octane-8-carboxylate], the EC50 in test [1] is 0.00398 µM; in test [2], greater than 20 µM; in test [3] it was greater than 20 µM; in test [4] it was 0.00251 µM. The Emax in test [1] stood at 103%; in test [2], 12%; in test [3], 22%; in test [4] it was 60%.

What is called Emax is the size of the effect at its maximum, as opposed to the concentration needed.
